Data taken from patent US8853213B2, “Bicyclic compound for modulating G protein-coupled receptors” (Hanmi Pharm. Co., Ltd, priority 2011, dated 2014).
pEC50: −log10 of the molar value.

The compounds below were run against T1, GPR119 (Homo sapiens, UniProt Q8TDV5) (assay: Controlling Effect of GPR119 in CRE-bla CHO-K1 Cells (EC50)). Conditions: GPR119 CRE-bla CHO-K1 cell line, 5 hr incubation with compound, β-lactamase LiveBLAzer-FRET B/G readout; read-out: controlling effect against GPR119 in CRE-bla CHO-K1 cell line (EC50).
T1 construct: host or cells: CHO-K1 (CRE-bla reporter, doxycycline-induced)
T1 sequence (Q8TDV5 1-335): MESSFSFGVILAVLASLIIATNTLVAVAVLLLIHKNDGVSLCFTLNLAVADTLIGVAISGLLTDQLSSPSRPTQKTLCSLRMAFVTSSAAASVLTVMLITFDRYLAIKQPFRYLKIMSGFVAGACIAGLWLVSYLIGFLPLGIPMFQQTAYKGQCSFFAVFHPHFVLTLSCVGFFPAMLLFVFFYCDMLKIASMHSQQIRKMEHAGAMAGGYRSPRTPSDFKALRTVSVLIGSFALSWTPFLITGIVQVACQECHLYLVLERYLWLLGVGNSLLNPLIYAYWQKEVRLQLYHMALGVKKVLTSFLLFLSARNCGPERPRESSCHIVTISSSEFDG
Assay type: cell-based
Protocol: Controlling Effect of GPR119 in CRE-bla CHO-K1 Cells (EC50)
The day before the experiment, GPR119 CRE-bla CHO-K1 cell line purchased from Invitrogen was seeded in a 96 black well plate in an amount of 80 μl at a density of 5×10^4 cells. After the seeding, 10 μl of doxycycline in a concentration of 1 μg/ml was added to each well and incubated in an incubator at 37° C. under 5% CO2 for about 16 to 20 hr.
The day of experiment, sample compounds were performed a 10-fold serial dilution with a culture medium at various concentrations of 1 uM to […]. Considering that the culture medium used in the seeding and doxycycline are together applied, the sample compounds were diluted to a 5-fold dilution of the planned concentration. 20 μl of the compound diluted with the culture medium was added to each well and incubated in the incubator for 5 hr. The compound-untreated group was added with 20 μl of 0.5% dimethyl sulfoxide (DMSO) diluted with the culture medium. After 5 hr from the incubation, substrate mixture of a 6-fold concentration were prepared; 6 μl of 1 mM LiveBLAzer™-FRET B/G(CCF4-AM) substrate, 60 μl of solution B, 904 μl of solution C and 30 μl of solution D. 12 μl of the substrate mixture was added to each well and allowed to be kept at room temperature for 2 hr with shading the light. Fluorescence intensity value of blue channel and green channel was determined by a fluorescence microplate reader at 409 nm/460 nm and 409 nm/[…] (excitation/emission), respectively. In order to confirm the controlling effect of the inventive compounds against GPR119, EC50 (half maximal effective concentration) was determined based on the determined values. EC50, the concentration at which 50% activity of β-lactamase, was determined according to the following Equation: Equation=[(Ti−Tz)/(C−Tz)]×100
[Wherein, Ti: Cell density of the compound-treated group; Tz: Cell density of the negative control group; and C: Cell density of the positive control group]

pEC50 | SMILES
> 7.00 | CS(=O)(=O)c1ccc(-c2csc3c(OC4CCN(c5ncc(C6CC6)cn5)CC4)ncnc23)cc1 [Example 56, 4-[1-(5-cyclopropyl-pyrimidin-2-yl)-piperidin-4-yloxy]-7-(4-methanesulfonyl-phenyl)-thieno[3,2-d]pyrimidine]
> 7.00 | CCc1cnc(N2CCC(Oc3ncnc4c(-c5ccc(S(C)(=O)=O)cc5)csc34)C2)nc1 (stereo not shown) [Example 57, 4-[1-(5-ethylpyrimidin-2-yl)-pyrrolidin-3-yloxy]-7-(4-methanesulfonyl-phenyl)-thieno[3,2-d]pyrimidine]
6.00 to 7.00 | CC(C)c1noc(N2CCC(Oc3ncnc4c(-c5ccc(S(C)(=O)=O)cc5)csc34)C2)n1 (stereo not shown) [Example 58, 4-[1-(3-isopropyl-[1,2,4]oxadiazol-5-yl)-pyrrolidin-3-yloxy]-7-(4-methanesulfonyl-phenyl)-thieno[3,2-d]pyrimidine]
< 6.00 | CS(=O)(=O)c1ccc(-c2csc3c(OC4CCN(c5nccc(C(F)(F)F)n5)CC4)ncnc23)cc1 [Example 59]
> 7.00 | CC(C)c1noc(N2CCC(Oc3ncnc4c(-c5ccc(S(C)(=O)=O)cc5F)csc34)CC2)n1 [Example 60, 7-(2-fluoro-4-methanesulfonyl-phenyl)-4-[1-(3-isopropyl-[1,2,4]oxadiazol-5-yl)piperidin-4-yloxy]thieno[3,2-d]pyrimidine]
> 7.00 | CCc1noc(N2CCC(Oc3ncnc4c(-c5ccc(S(C)(=O)=O)cc5F)csc34)CC2)n1 [Example 61, 3-ethyl-5-(4-(7-(2-fluoro-4-methanesulfonyl-phenyl)thieno[3,2-d]pyrimidin-4-yloxy)piperidin-1-yl)-1,2,4-oxadiazole]
> 7.00 | CCC(C)c1noc(N2CCC(Oc3ncnc4c(-c5ccc(S(C)(=O)=O)cc5F)csc34)CC2)n1 (stereo not shown) [Example 62, 3-sec-butyl-5-(4-(7-(2-fluoro-4-methanesulfonyl-phenyl)thieno[3,2-d]pyrimidin-4-yloxy)piperidin-1-yl)-1,2,4-oxadiazole]
> 7.00 | CS(=O)(=O)c1ccc(-c2csc3c(OC4CCN(c5nc(C6CC6)no5)CC4)ncnc23)c(F)c1 [Example 63, 7-(2-fluoro-4-methanesulfonyl-phenyl)-4-[1-(3-cyclopropyl-[1,2,4]oxadiazol-5-yl)piperidin-4-yloxy]thieno[3,2]pyrimidine]
> 7.00 | CS(=O)(=O)c1ccc(-c2csc3c(OC4CCN(c5nc(-c6ccccc6)no5)CC4)ncnc23)c(F)c1 [Example 64, 5-(4-(7-(2-fluoro-4-methanesulfonyl-phenyl)thieno[3,2-d]pyrimidin-4-yloxy)piperidin-1-yl)-3-phenyl-1,2,4-oxadiazole]
> 7.00 | CS(=O)(=O)c1ccc(-c2csc3c(OC4CCN(c5nc(-c6ccc(F)cc6)no5)CC4)ncnc23)c(F)c1 [Example 65, 5-(4-(7-(2-fluoro-4-methanesulfonyl-phenyl)thieno[3,2-d]pyrimidin-4-yloxy)piperidin-1-yl)-3-(4-fluorophenyl)-1,2,4-oxadiazole]
> 7.00 | CS(=O)(=O)c1ccc(-c2csc3c(OC4CCN(c5nc(-c6ccncc6)no5)CC4)ncnc23)c(F)c1 [Example 66, 5-(4-(7-(2-fluoro-4-methanesulfonyl-phenyl)thieno[3,2-d]pyrimidin-4-yloxy)piperidin-1-yl)-3-(pyridin-4-yl)-1,2,4-oxadiazole]
> 7.00 | CS(=O)(=O)c1ccc(-c2csc3c(OC4CCN(c5nc(-c6cccnc6)no5)CC4)ncnc23)c(F)c1 [Example 67, 5-(4-(7-(2-fluoro-4-methanesulfonyl-phenyl)thieno[3,2-d]pyrimidin-4-yloxy)piperidin-1-yl)-3-(pyridin-3-yl)-1,2,4-oxadiazole]
6.00 to 7.00 | CS(=O)(=O)c1ccc(-c2csc3c(OC4CCN(c5nc(-c6cnccn6)no5)CC4)ncnc23)c(F)c1 [Example 68, 5-(4-(7-(2-fluoro-4-methanesulfonyl-phenyl)thieno[3,2-d]pyrimidin-4-yloxy)piperidin-1-yl)-3-(pyrazin-2-yl)-1,2,4-oxadiazole]
